Measured values as given in patent publication US20060069132A1, “Azolecarboxamide herbicides” (priority 2004, published 2006).

Assays:
rice = assay: Test B flooded paddy test; format: in vivo, Oryza sativa; conditions: 1000 g ai/ha, scale 0 to 100 (0 no effect, 100 complete control)
Summary of the method: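 Plants grow to 1- to 4-leaf stage (2–18 cm) for postemergence spraying, or to 2-leaf stage for the paddy test. Formulated compound is applied. Greenhouse holding lasts 13–15 days. Response is scored visually relative to controls, 0 no effect to 100 complete control; a dash means no result.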

morningglory = assay: Test B pre-/postemergence herbicide test; format: in vivo, Ipomoea coccinea
Summary of the method: (§1)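 Seeds were planted and treated preemergence with compounds formulated in a non-phytotoxic solvent mixture containing surfactant, while plants at the 1- to 4-leaf stage (2 to 18 cm) received postemergence sprays. Flooded paddy plants were grown to the 2-leaf stage. After 13 to 15 days in a greenhouse, injury was visually rated 0–100 against untreated controls.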

barnyardgrass [1] = assay: Test B flooded paddy test; format: in vivo, Echinochloa crus-galli; conditions: 1000 g ai/ha, scale 0 to 100 (0 no effect, 100 complete control)
Summary of the method: (§2)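 Postemergence plants were sprayed with formulated test chemicals at 2 to 18 cm height (1- to 4-leaf stage); paddy species were grown to the 2-leaf stage. After 13 to 15 days in a greenhouse, injury was rated visually against untreated controls on a 0–100 scale (0 = no effect, 100 = complete control).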

blackgrass = assay: Test B postemergence herbicide test; format: in vivo, Alopecurus myosuroides
Summary of the method: as §2

ducksalad = assay: Test B flooded paddy test; format: in vivo, Heteranthera limosa; conditions: 1000 g ai/ha, scale 0 to 100 (0 no effect, 100 complete control)
Summary of the method: as §2

Surinam grass = assay: Test B pre-/postemergence herbicide test; format: in vivo, Urochloa decumbens
Summary of the method: (§3)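 Pre: seeds sown, then sprayed. Post: 1–4-leaf plants (2–18 cm) sprayed at the same time. Paddy: flooded, treated at 2-leaf stage. Formulation: non-phytotoxic solvent with surfactant. Greenhouse 13–15 days; visual 0–100 score relative to controls.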

cocklebur = assay: Test B pre-/postemergence herbicide test; format: in vivo, Xanthium strumarium
Summary of the method: as §1

lambsquarters = assay: Test B pre-/postemergence herbicide test; format: in vivo, Chenopodium album
Summary of the method: as §3

wheat = assay: Test B postemergence herbicide test; format: in vivo, Triticum aestivum; parameters: key to Wheat plant response rating: 0 = no effect, 100 = complete control
Summary of the method: (§4)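 Scale 0–100: zero equals no visible effect, 100 complete control, judged by eye relative to controls. Timing: 13 to 15 days in greenhouse post-treatment. Growth stage at spraying: two leaves (paddy) or one to four leaves, 2–18 cm (postemergence).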

velvetleaf = assay: Test B pre-/postemergence herbicide test; format: in vivo, Abutilon theophrasti
Summary of the method: as §3

wild oat = assay: Test B postemergence herbicide test; format: in vivo, Avena fatua
Summary of the method: as §4

pigweed = assay: Test B pre-/postemergence herbicide test; format: in vivo, Amaranthus retroflexus
Summary of the method: as §3

barnyardgrass [2] = assay: Test B pre-/postemergence herbicide test; format: in vivo, Echinochloa crus-galli
Summary of the method: as §1

giant foxtail = assay: Test B pre-/postemergence herbicide test; format: in vivo, Setaria faberi
Summary of the method: as §3

[3] = test system: small flower umbrella sedge; assay: Test B flooded paddy test; format: in vivo, Cyperus difformis; conditions: 1000 g ai/ha, scale 0 to 100 (0 no effect, 100 complete control)
Summary of the method: as §2

[4] = 125 g ai/ha; 0 = no effect, 100 = complete control; preemergence
[5] = 500 g ai/ha; visual rating, 0 = no effect, 100 = complete control; preemergence
[6] = postemergence, 125 g ai/ha; visual rating, scale 0 (no effect) to 100 (complete control)
[7] = postemergence, 500 g ai/ha; scale 0 to 100, 0 is no effect, 100 is complete control
[8] = postemergence, 500 g ai/ha; visual rating, scale 0 (no effect) to 100 (complete control)
[9] = 500 g ai/ha; visual rating 0-100, 0 no effect, 100 complete control; preemergence
[10] = preemergence, 125 g ai/ha; 0 to 100 scale, 0 is no effect, 100 is complete control
[11] = 125 g ai/ha; visual rating, scale 0 (no effect) to 100 (complete control); postemergence

## CCn1nc(C(C)(C)C)cc1C(=O)Nc1cc(C(=O)N2CCCC2)ccc1F [Compound 242]
rice
  Rice plant response rating: 90
morningglory; [4]
  Morningglory plant response rating (0 to 100 scale): 0
morningglory; [5]
  Plant response rating, Morningglory: 10
morningglory; [6]
  Morningglory plant response rating: 20
morningglory; [7]
  Morningglory plant response rating: 40
Barnyardgrass [1]
  Barnyardgrass plant response rating: 90
blackgrass; [6]
  Blackgrass plant response rating: 10
blackgrass; [8]
  Blackgrass plant response rating: 20
ducksalad
  Ducksalad plant response rating: 90
Surinam grass; [4]
  Surinam Grass plant response rating (0 to 100 scale): 70
Surinam grass; [5]
  Plant response rating, Surinam Grass: 90
Surinam grass; [6]
  Surinam Grass plant response rating: 30
Surinam grass; [7]
  Surinam Grass plant response rating: 60
cocklebur; [4]
  Cocklebur plant response rating (0 to 100 scale): 10
cocklebur; [5]
  Plant response rating, Cocklebur: 40
cocklebur; [6]
  Cocklebur plant response rating: 40
cocklebur; [8]
  Cocklebur plant response rating: 90
lambsquarters; [4]
  Lambsquarters plant response rating (0 to 100 scale): 100
lambsquarters; [5]
  Plant response rating, Lambsquarters: 100
lambsquarters; [6]
  Lambsquarters plant response rating: 90
lambsquarters; [7]
  Lambsquarters plant response rating: 90
wheat; [6]
  Wheat plant response rating: 10
wheat; [7]
  Wheat plant response rating: 10
velvetleaf; [4]
  Velvetleaf plant response rating (0 to 100 scale): 50
velvetleaf; [5]
  Plant response rating, Velvetleaf: 100
velvetleaf; [6]
  Velvetleaf plant response rating: 50
velvetleaf; [7]
  Velvetleaf plant response rating: 60
Wild oat; [6]
  Oat, Wild plant response rating: 10
Wild oat; [7]
  Oat, Wild plant response rating: 30
pigweed; [4]
  Pigweed plant response rating (0 to 100 scale): 100
pigweed; [5]
  Plant response rating, Pigweed: 100
pigweed; [6]
  Pigweed plant response rating: 60
pigweed; [7]
  Pigweed plant response rating: 80
Barnyardgrass [2]; [4]
  Barnyardgrass plant response rating (0 to 100 scale): 80
Barnyardgrass [2]; [5]
  Plant response rating, Barnyardgrass: 100
Barnyardgrass [2]; [6]
  Barnyardgrass plant response rating: 50
Barnyardgrass [2]; [8]
  Barnyardgrass plant response rating: 60
Giant foxtail; [4]
  Foxtail, Giant plant response rating (0 to 100 scale): 80
Giant foxtail; [5]
  Plant response rating, Foxtail, Giant: 90
Giant foxtail; [6]
  Foxtail, Giant plant response rating: 20
Giant foxtail; [7]
  Foxtail, Giant plant response rating: 30
[3]
  Sedge, Umbrella plant response rating: 90

## CCc1nc(C(C)(C)C)sc1C(=O)Nc1cccc(C(=O)NCC2CC2)n1 [Compound 215]
rice; visual rating, 13 to 15 days
  Rice plant response rating: 30
morningglory; [4]
  Morningglory plant response rating (0 to 100 scale): 10
morningglory; [5]
  Plant response rating, Morningglory: 20
morningglory; [6]
  Morningglory plant response rating: 0
morningglory; [8]
  Morningglory plant response rating: 40
Barnyardgrass [1]; visual rating, 13 to 15 days
  Barnyardgrass plant response rating: 30
blackgrass; [6]
  Blackgrass plant response rating: 0
blackgrass; [8]
  Blackgrass plant response rating: 0
ducksalad; visual rating, 13 to 15 days
  Ducksalad plant response rating: 90
Surinam grass; [4]
  Surinam Grass plant response rating (0 to 100 scale): 0
Surinam grass; [5]
  Plant response rating, Surinam Grass: 70
Surinam grass; [6]
  Surinam Grass plant response rating: 0
Surinam grass; [8]
  Surinam Grass plant response rating: 10
cocklebur; [4]
  Cocklebur plant response rating (0 to 100 scale): 0
cocklebur; [5]
  Plant response rating, Cocklebur: 0
cocklebur; [6]
  Cocklebur plant response rating: 20
cocklebur; [8]
  Cocklebur plant response rating: 80
lambsquarters; [4]
  Lambsquarters plant response rating (0 to 100 scale): 90
lambsquarters; [5]
  Plant response rating, Lambsquarters: 100
lambsquarters; [6]
  Lambsquarters plant response rating: 0
lambsquarters; [8]
  Lambsquarters plant response rating: 0
wheat; [6]
  Wheat plant response rating: 0
wheat; [8]
  Wheat plant response rating: 20
velvetleaf; [4]
  Velvetleaf plant response rating (0 to 100 scale): 0
velvetleaf; [5]
  Plant response rating, Velvetleaf: 60
velvetleaf; [6]
  Velvetleaf plant response rating: 40
velvetleaf; [8]
  Velvetleaf plant response rating: 60
Wild oat; [6]
  Oat, Wild plant response rating: 10
Wild oat; [8]
  Oat, Wild plant response rating: 20
pigweed; [4]
  Pigweed plant response rating (0 to 100 scale): 80
pigweed; [5]
  Plant response rating, Pigweed: 100
pigweed; [6]
  Pigweed plant response rating: 20
pigweed; [8]
  Pigweed plant response rating: 70
Barnyardgrass [2]; [4]
  Barnyardgrass plant response rating (0 to 100 scale): 10
Barnyardgrass [2]; [5]
  Plant response rating, Barnyardgrass: 60
Barnyardgrass [2]; [6]
  Barnyardgrass plant response rating: 0
Barnyardgrass [2]; [8]
  Barnyardgrass plant response rating: 20
Giant foxtail; [4]
  Foxtail, Giant plant response rating (0 to 100 scale): 0
Giant foxtail; [5]
  Plant response rating, Foxtail, Giant: 80
Giant foxtail; [6]
  Foxtail, Giant plant response rating: 0
Giant foxtail; [8]
  Foxtail, Giant plant response rating: 20
[3]; visual rating, 13 to 15 days
  Sedge, Umbrella plant response rating: 90

## CCNC(=O)c1cc(C)nc(NC(=O)c2cc(C(C)(C)C)nn2CC)c1 [Compound 149]
rice; visual rating, 13 to 15 days
  Rice plant response rating: 50
morningglory; [9]
  Plant response rating, Morningglory: 40
morningglory; [6]
  Morningglory plant response rating: 20
morningglory; [8]
  Morningglory plant response rating: 40
morningglory; [10]
  Plant response rating, Morningglory: 20
Barnyardgrass [1]; visual rating, 13 to 15 days
  Barnyardgrass plant response rating: 70
blackgrass; [6]
  Blackgrass plant response rating: 10
blackgrass; [8]
  Blackgrass plant response rating: 40
ducksalad; visual rating, 13 to 15 days
  Ducksalad plant response rating: 90
Surinam grass; [9]
  Plant response rating, Surinam Grass: 80
Surinam grass; [6]
  Surinam Grass plant response rating: 10
Surinam grass; [8]
  Surinam Grass plant response rating: 20
Surinam grass; [10]
  Plant response rating, Surinam Grass: 40
cocklebur; [9]
  Plant response rating, Cocklebur: 0
cocklebur; [6]
  Cocklebur plant response rating: 20
cocklebur; [8]
  Cocklebur plant response rating: 100
cocklebur; [10]
  Plant response rating, Cocklebur: 0
lambsquarters; [9]
  Plant response rating, Lambsquarters: 100
lambsquarters; [6]
  Lambsquarters plant response rating: 20
lambsquarters; [8]
  Lambsquarters plant response rating: 60
lambsquarters; [10]
  Plant response rating, Lambsquarters: 60
wheat; [8]
  Wheat plant response rating: 10
velvetleaf; [9]
  Plant response rating, Velvetleaf: 40
velvetleaf; [6]
  Velvetleaf plant response rating: 10
velvetleaf; [8]
  Velvetleaf plant response rating: 50
velvetleaf; [10]
  Plant response rating, Velvetleaf: 0
Wild oat; [6]
  Oat, Wild plant response rating: 10
Wild oat; [8]
  Oat, Wild plant response rating: 30
pigweed; [9]
  Plant response rating, Pigweed: 100
pigweed; [6]
  Pigweed plant response rating: 50
pigweed; [8]
  Pigweed plant response rating: 70
pigweed; [10]
  Plant response rating, Pigweed: 100
Barnyardgrass [2]; [9]
  Plant response rating, Barnyardgrass: 90
Barnyardgrass [2]; [6]
  Barnyardgrass plant response rating: 0
Barnyardgrass [2]; [8]
  Barnyardgrass plant response rating: 30
Barnyardgrass [2]; [10]
  Plant response rating, Barnyardgrass: 80
Giant foxtail; [9]
  Plant response rating, Foxtail, Giant: 100
Giant foxtail; [6]
  Foxtail, Giant plant response rating: 10
Giant foxtail; [8]
  Foxtail, Giant plant response rating: 10
Giant foxtail; [10]
  Plant response rating, Foxtail, Giant: 60
[3]; visual rating, 13 to 15 days
  Sedge, Umbrella plant response rating: 60

## CCOC(=O)c1ccc(F)c(NC(=O)c2cc(C3(C)CC3)nn2CC)c1 [Compound 296]
rice
  Rice plant response rating: 60
morningglory; [4]
  Morningglory plant response rating (0 to 100 scale): 10
morningglory; [11]
  Morningglory plant response rating: 50
morningglory; [5]
  Plant response rating, Morningglory: 20
morningglory; [7]
  Morningglory plant response rating: 80
Barnyardgrass [1]
  Barnyardgrass plant response rating: 80
blackgrass; [11]
  Blackgrass plant response rating: 30
blackgrass; [7]
  Blackgrass plant response rating: 40
ducksalad
  Ducksalad plant response rating: 80
Surinam grass; [4]
  Surinam Grass plant response rating (0 to 100 scale): 20
Surinam grass; [11]
  Surinam Grass plant response rating: 40
Surinam grass; [5]
  Plant response rating, Surinam Grass: 60
Surinam grass; [7]
  Surinam Grass plant response rating: 50
cocklebur; [4]
  Cocklebur plant response rating (0 to 100 scale): 0
cocklebur; [11]
  Cocklebur plant response rating: 50
cocklebur; [5]
  Plant response rating, Cocklebur: 0
cocklebur; [7]
  Cocklebur plant response rating: 60
lambsquarters; [4]
  Lambsquarters plant response rating (0 to 100 scale): 90
lambsquarters; [11]
  Lambsquarters plant response rating: 50
lambsquarters; [5]
  Plant response rating, Lambsquarters: 100
lambsquarters; [7]
  Lambsquarters plant response rating: 70
wheat; [11]
  Wheat plant response rating: 20
wheat; [7]
  Wheat plant response rating: 30
velvetleaf; [11]
  Velvetleaf plant response rating: 90
velvetleaf; [5]
  Plant response rating, Velvetleaf: 80
velvetleaf; [7]
  Velvetleaf plant response rating: 100
Wild oat; [11]
  Oat, Wild plant response rating: 30
Wild oat; [7]
  Oat, Wild plant response rating: 40
pigweed; [4]
  Pigweed plant response rating (0 to 100 scale): 70
pigweed; [11]
  Pigweed plant response rating: 80
pigweed; [5]
  Plant response rating, Pigweed: 80
pigweed; [7]
  Pigweed plant response rating: 100
Barnyardgrass [2]; [4]
  Barnyardgrass plant response rating (0 to 100 scale): 30
Barnyardgrass [2]; [11]
  Barnyardgrass plant response rating: 30
Barnyardgrass [2]; [5]
  Plant response rating, Barnyardgrass: 60
Barnyardgrass [2]; [7]
  Barnyardgrass plant response rating: 80
Giant foxtail; [4]
  Foxtail, Giant plant response rating (0 to 100 scale): 70
Giant foxtail; [11]
  Foxtail, Giant plant response rating: 60
Giant foxtail; [5]
  Plant response rating, Foxtail, Giant: 90
Giant foxtail; [7]
  Foxtail, Giant plant response rating: 60
[3]
  Sedge, Umbrella plant response rating: 80
